The results in this text go back to US8809391B2, “Agent for treating Parkinson's disease” (OOO “Tomskaya Farmatsevticheskaya Fabrika”, priority 2009, dated 2014).

The test system of one data set is white outbred mice. Kind of data set: Acute toxicity, single intragastric administration, Kerber method. Particulars: mouse, in vivo. The source says:
(§1) The acute toxicity of the compound 1a was studied in white outbred mice weighting 20-22 g following single intragastric administration using Kerber method.

Test in data set [1]: as above
Particulars: mouse, in vivo, po; white outbred mice 20-22 g, single intragastric administration, Kerber method.
Excerpt: as §1

The LD50 is the dose at which mortality reaches 50%. A high value points to lower toxicity. For `C=C(C)C1CC=C(C)C(O)C1O` (centres unmarked) [1a, 3-methyl-6-(1-methylethenyl)cyclohex-3-ene-1,2-diol], the “acute toxicity (in words)” value in the data set with white outbred mice is on record as “low toxicity”. In data set [1], this compound gave an LD50 of 4250 mg/kg.
